Reference: the NIST ThermoML archive (doi:10.1021/je2009413)
± gives the expanded uncertainty stated by the source.

What was measured:
[1] = osmotic coefficient (dimensionless); mn = molality of the nth substance listed, in mol/kg; conditions: 298.15 K, Liquid, isopiestic method
[2] = mean ionic activity coefficient (dimensionless); mn = molality of the nth substance listed, in mol/kg; conditions: 298.15 K, Liquid, Isopiestic method

CCCC[N+](CC)(CC)CCCC.[I-] [N-butyl-N,N-diethylbutan-1-aminium iodide] + O
Conditions | mean ionic activity coefficient, [2] | osmotic coefficient, [1]
m1 = 0.0372 | 0.7064 ± 0.0001 | 0.828 ± 0.01
m1 = 0.0441 | 0.6798 ± 0.0001 | 0.813 ± 0.011
m1 = 0.0491 | 0.6621 ± 0.0001 | 0.805 ± 0.011
m1 = 0.0634 | 0.6174 ± 0.0001 | 0.782 ± 0.011
m1 = 0.0706 | 0.5976 ± 0.0001 | 0.772 ± 0.011
m1 = 0.0749 | 0.5865 ± 0.0001 | 0.768 ± 0.011
m1 = 0.0839 | 0.5647 ± 0.0001 | 0.756 ± 0.011
m1 = 0.0992 | 0.5317 ± 0.0001 | 0.738 ± 0.012
m1 = 0.1069 | 0.5166 ± 0.0001 | 0.731 ± 0.012
m1 = 0.1133 | 0.5048 ± 0.0001 | 0.723 ± 0.012
m1 = 0.1221 | 0.4896 ± 0.0001 | 0.716 ± 0.012
m1 = 0.1938 | 0.3939 ± 0.0001 | 0.654 ± 0.014
m1 = 0.1969 | 0.3912 ± 0.0001 | 0.649 ± 0.014
m1 = 0.2338 | 0.3566 ± 0.0001 | 0.625 ± 0.015
m1 = 0.2705 | 0.3248 ± 0.0001 | 0.61 ± 0.015
m1 = 0.2758 | 0.3213 ± 0.0001 | 0.605 ± 0.015
m1 = 0.3292 | 0.2868 ± 0.0001 | 0.581 ± 0.016
m1 = 0.3751 | 0.2634 ± 0.0001 | 0.559 ± 0.017
m1 = 0.4189 | 0.2415 ± 0.0001 | 0.546 ± 0.018
m1 = 0.4343 | 0.2351 ± 0.0001 | 0.541 ± 0.018
m1 = 0.4687 | 0.2213 ± 0.0001 | 0.532 ± 0.018
m1 = 0.5317 | 0.2037 ± 0.0001 | 0.508 ± 0.019
m1 = 0.58 | 0.1904 ± 0.0001 | 0.497 ± 0.019
m1 = 0.6463 | 0.1748 ± 0.0001 | 0.481 ± 0.02
m1 = 0.7082 | 0.166 ± 0.0001 | 0.463 ± 0.021
m1 = 0.758 | 0.1556 ± 0.0001 | 0.456 ± 0.021
m1 = 0.7808 | 0.1521 ± 0.0001 | 0.451 ± 0.021
m1 = 0.9199 | 0.1348 ± 0.0001 | 0.426 ± 0.022
m1 = 0.9899 | 0.1266 ± 0.0001 | 0.416 ± 0.023
m1 = 1.1 | 0.1171 ± 0.0001 | 0.401 ± 0.023
m1 = 1.178 | 0.1131 ± 0.0001 | 0.389 ± 0.024
m1 = 1.324 | 0.1042 ± 0.0001 | 0.375 ± 0.024
m1 = 1.426 | 0.0988 ± 0.0001 | 0.371 ± 0.024
m1 = 1.548 | 0.0944 ± 0.0001 | 0.366 ± 0.025
m1 = 1.66 | 0.0909 ± 0.0001 | 0.362 ± 0.025
m1 = 1.76 | 0.0885 ± 0.0001 | 0.363 ± 0.025
m1 = 1.926 | 0.0852 ± 0.0001 | 0.366 ± 0.025
m1 = 2.042 | 0.0821 ± 0.0001 | 0.377 ± 0.024
m1 = 2.078 | 0.0809 ± 0.0001 | 0.383 ± 0.024
m1 = 2.108 | 0.0807 ± 0.0001 | 0.384 ± 0.024
m1 = 2.136 | 0.0802 ± 0.0001 | 0.386 ± 0.024
m1 = 2.179 | 0.0789 ± 0.0001 | 0.4 ± 0.023
m1 = 2.218 | 0.0782 ± 0.0001 | 0.405 ± 0.023
m1 = 2.389 | 0.0748 ± 0.0001 | 0.434 ± 0.022

CCCC[N+](CC)(CCCC)CCCC.[I-] [N,N-dibutyl-N-ethyl-1-butanaminium iodide] + O
Conditions | mean ionic activity coefficient, [2] | osmotic coefficient, [1]
m1 = 0.0378 | 0.6891 ± 0.0001 | 0.814 ± 0.011
m1 = 0.0449 | 0.6605 ± 0.0001 | 0.799 ± 0.011
m1 = 0.0501 | 0.6414 ± 0.0001 | 0.789 ± 0.011
m1 = 0.0653 | 0.5922 ± 0.0001 | 0.761 ± 0.011
m1 = 0.0727 | 0.5712 ± 0.0001 | 0.749 ± 0.012
m1 = 0.0776 | 0.5582 ± 0.0001 | 0.741 ± 0.012
m1 = 0.0868 | 0.5355 ± 0.0001 | 0.731 ± 0.012
m1 = 0.1035 | 0.499 ± 0.0001 | 0.707 ± 0.013
m1 = 0.1121 | 0.4824 ± 0.0001 | 0.698 ± 0.013
m1 = 0.1191 | 0.4695 ± 0.0001 | 0.688 ± 0.013
m1 = 0.1288 | 0.4528 ± 0.0001 | 0.679 ± 0.013
m1 = 0.2082 | 0.3515 ± 0.0001 | 0.614 ± 0.015
m1 = 0.2083 | 0.3515 ± 0.0001 | 0.609 ± 0.015
m1 = 0.2503 | 0.3142 ± 0.0001 | 0.584 ± 0.016
m1 = 0.292 | 0.2842 ± 0.0001 | 0.565 ± 0.017
m1 = 0.3027 | 0.2774 ± 0.0001 | 0.551 ± 0.017
m1 = 0.3652 | 0.2431 ± 0.0001 | 0.524 ± 0.018
m1 = 0.4254 | 0.217 ± 0.0001 | 0.493 ± 0.02
m1 = 0.4783 | 0.1981 ± 0.0001 | 0.478 ± 0.02
m1 = 0.498 | 0.1919 ± 0.0001 | 0.471 ± 0.021
m1 = 0.547 | 0.1778 ± 0.0001 | 0.456 ± 0.021
m1 = 0.6197 | 0.1601 ± 0.0001 | 0.436 ± 0.022
m1 = 0.6878 | 0.1461 ± 0.0001 | 0.419 ± 0.022
m1 = 0.7684 | 0.1322 ± 0.0001 | 0.405 ± 0.023
m1 = 0.8453 | 0.1209 ± 0.0001 | 0.388 ± 0.024
m1 = 0.908 | 0.1127 ± 0.0001 | 0.381 ± 0.024
m1 = 0.9478 | 0.108 ± 0.0001 | 0.371 ± 0.024
m1 = 1.128 | 0.09 ± 0.0001 | 0.347 ± 0.025
m1 = 1.231 | 0.0816 ± 0.0001 | 0.335 ± 0.026
m1 = 1.337 | 0.0739 ± 0.0001 | 0.33 ± 0.026
m1 = 1.405 | 0.0695 ± 0.0001 | 0.326 ± 0.026
m1 = 1.548 | 0.0611 ± 0.0001 | 0.321 ± 0.026
m1 = 1.652 | 0.0557 ± 0.0001 | 0.321 ± 0.026
m1 = 1.751 | 0.051 ± 0.0001 | 0.323 ± 0.026
m1 = 1.825 | 0.0478 ± 0.0001 | 0.33 ± 0.026
m1 = 1.91 | 0.0443 ± 0.0001 | 0.334 ± 0.026
m1 = 2.042 | 0.0393 ± 0.0001 | 0.345 ± 0.025
m1 = 2.173 | 0.0349 ± 0.0001 | 0.354 ± 0.025
m1 = 2.216 | 0.0335 ± 0.0001 | 0.359 ± 0.025
m1 = 2.239 | 0.0328 ± 0.0001 | 0.362 ± 0.025
m1 = 2.276 | 0.0317 ± 0.0001 | 0.362 ± 0.025
m1 = 2.339 | 0.0299 ± 0.0001 | 0.372 ± 0.024
m1 = 2.38 | 0.0288 ± 0.0001 | 0.377 ± 0.024
m1 = 2.583 | 0.0236 ± 0.0001 | 0.402 ± 0.023
